In one test the test system is carrageenin oedema. Briefly: Carrageenin oedema test for anti-inflammatory activity. It is filed as in vivo, Male Wistar rats. The conditions noted are these: rat, per os, aqueous tragacanth suspension, 30 minutes before carrageenin; paw volume 3 hours after carrageenin injection; dose to inhibit the response by 50%; unit assumed. The protocol: Carrageenin oedema test for anti-inflammatory activity
Male Wistar rats weighing 120-150 g were fasted overnight and then received a test compound per os as an aqueous tragacanth suspension. 30 minutes later, inflammation was induced by the subcutaneous injection of 0.05 ml of a 1% carrageenin suspension into the plantar tissue of a hind paw of each rat [Winter et al., Proc. Soc. […] The anti-oedema activity was measured volumetrically, by assessing the response, as calculated from the following equation: […]
where Vo and V represent, respectively, the paw volume immediately before and 3 hours after the carrageenin injection.
A general note: The carrageenan paw model is a standard test of acute inflammation.

For the next test, the system named is pressure-induced pain. As to the kind of experiment: Pain test for analgesic activity (modified Randall-Selitto, Brewers' yeast inflamed paw pressure). It is filed as in vivo, Male Wistar-Imamichi rats. The conditions noted are these: read-out: Analgesic activity ED50. On the procedure: Pain test for analgesic activity
This test was conducted according to a modification of the method reported by L. O. Randall and J. J. Selitto in Arch. Int.
Male Wistar-Imamichi rats of 4 weeks of age and weighing 60-90 g were injected with 0.1 ml of a 20% by weight suspension of Brewers' yeast in the right hind paw. […] Each of these was given orally a test compound as an aqueous tragacanth suspension. 1 and 2 hours after administration of the test compound, the pain threshold was determined by observing pain responses (such as struggling or squeaking) when the inflamed or normal paw was subjected to pressure by a machine (Ugo-Basile).

[1] abbreviates: rat, oral, aqueous tragacanth suspension, pain threshold 1 and 2 hours after administration, effective = at least twice mean pain threshold of controls, Litchfield and Wilcoxon.

Where two headings read alike, the source gives them in different places.

We go through three molecules from patent US4461912A, “Phenylacetic acid derivatives, their preparation and compositions containing them” (Sankyo Company Limited, priority 1981, dated 1984).

Regarding `CC(C(=O)O)c1ccc(C=C2CCCCC2O)cc1` (stereo not drawn) [A, 2-[4-(2-hydroxycyclohexylidenemethyl)phenyl]propionic acid], in the test on carrageenin oedema, the Anti-inflammatory activity ID50 was 0.98 mg/kg. Further, the median effective dose (ED50) in the test with pressure-induced pain (setting [1]) worked out at 0.35 mg/kg.

`COc1ccc2c(c1)c(CC(=O)O)c(C)n2C(=O)c1ccc(Cl)cc1` [B, Indomethacin] returned an Anti-inflammatory activity ID50 with carrageenin oedema of 2.2 mg/kg. Moreover, the ED50 with pressure-induced pain (Rattus norvegicus, po) was 1.6 mg/kg.

Turning to `CC(C(=O)O)c1ccc(C=C2CCCCC2=O)cc1` (stereo not drawn) [C, 2-[4-(2-oxocyclohexylidenemethyl)phenyl]propionic acid], in the test with carrageenin oedema, the Anti-inflammatory activity ID50 worked out at 1.2 mg/kg. Also, the ED50 in the test with pressure-induced pain (setting [1]) turned out to be 0.94 mg/kg.

The ED50 is the dose that gives a 50% effect, or the effect in half of the subjects.
